Consider 18 compounds from the supplement of paper PMC8967900.
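Also: ALL cell lines in 384-well plates, five doses spanning 10,000-fold, each plate scaled between vehicle and 100 µmol/L benzalkonium chloride controls, sDSS an adapted area-under-curve metric.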

The first experiment has as its system COG-LL-402h. Description: selective drug sensitivity score (sDSS, relative to normal bone marrow) (sDSS (score)); higher = more potent and effective on the cell line relative to normal bone marrow cells. The conditions noted are these: 72 h.
For the compound `CC(=O)[C@]1(O)Cc2c(O)c3c(c(O)c2[C@@H](O[C@H]2C[C@H](N)[C@H](O)[C@H](C)O2)C1)C(=O)c1ccccc1C3=O` [Idarubicin] (top concentration 1000 nM), the “selective drug sensitivity score” value is 14.9.

On to `COc1cc2nccc(Oc3ccc(NC(=O)NC4CC4)c(Cl)c3)c2cc1C(N)=O` [Lenvatinib] (top concentration 2500 nM), for which the “selective drug sensitivity score” value is 1.56.

As for `N#Cc1ccc(C(c2ccc(C#N)cc2)n2cncn2)cc1` [Letrozole] (top concentration 10000 nM), the “selective drug sensitivity score” value was -0.04.

Regarding `CCNCCS(=O)(=O)NC[C@@]1(c2ccccc2)SC(NC(=O)C(C)(C)C)=NN1C(=O)C(C)(C)C` [Litronesib] (top concentration 1000 nM), the “selective drug sensitivity score” value stood at 18.

As to `CC[C@H](C)C(=O)O[C@H]1C[C@@H](C)C=C2C=C[C@H](C)[C@H](CC[C@@H]3C[C@@H](O)CC(=O)O3)[C@H]21` [Lovastatin] (top concentration 10000 nM), the “selective drug sensitivity score” value was -0.1.

As to `Cn1cc(-c2cnn3c(N)c(Br)c([C@@H]4CCCNC4)nc23)cn1` [MK-8776] (top concentration 2500 nM), the “selective drug sensitivity score” value amounted to 2.64.

Consider `Cc1cnc(-c2ccccc2C(C)C)nc1NCc1ccc(-n2ccnn2)cc1` [ML323] (top concentration 10000 nM), for which the “selective drug sensitivity score” value was -0.36.

Regarding `O=C(CCNC(=O)c1ccc(OC(F)(F)F)cc1)N[C@@H]1CCCc2ccccc21` [ML390] (top concentration 50000 nM), the “selective drug sensitivity score” value came to 3.2.

Regarding `CN(C)C(=N)NC(=N)N` [Metformin] (top concentration 100000 nM), the “selective drug sensitivity score” value was -0.02.

Turning to `C[C@H]1C[C@@H]2[C@H]([C@@H](O)C[C@@]3(C)[C@H]2CC[C@]3(O)C(=O)CO)[C@@]2(C)C=CC(=O)C=C12` [Methylprednisolone] (top concentration 10000 nM), the “selective drug sensitivity score” value amounted to 18.5.

On to `FC(F)(F)c1ccc(/C=C/c2nc(COc3ccc(CCCCn4ccnn4)cc3)co2)cc1` [Mubritinib] (top concentration 1000 nM), for which the “selective drug sensitivity score” value was -0.84.

Turning to `COc1cc2c(cc1OC(C)C)[C@H](c1ccc(Cl)cc1)N(c1ccc(N(C)C[C@H]3CC[C@H](N4CCN(C)C(=O)C4)CC3)cc1)C(=O)C2` [NVP-CGM097] (top concentration 25000 nM), the “selective drug sensitivity score” value was found to be 12.1.

Consider `CCOc1cc2ncc(C#N)c(Nc3ccc(OCc4ccccn4)c(Cl)c3)c2cc1NC(=O)/C=C/CN(C)C` [Neratinib] (top concentration 1000 nM), for which the “selective drug sensitivity score” value is 7.78.

Regarding `COc1ncc(-c2ccc3nccc(-c4ccnnc4)c3c2)cc1NS(=O)(=O)c1ccc(F)cc1F` [Omipalisib] (top concentration 1000 nM), the “selective drug sensitivity score” value stood at 13.4.

For the compound `CN1CCN(c2cc(C(=O)Nc3ccc4c(c3)-c3c(c(C(N)=O)nn3-c3ccc(F)cc3)CC4)c(Cl)cn2)CC1` [PHA-408] (top concentration 10000 nM), the “selective drug sensitivity score” value was -3.92.

As to `OC[C@H]1O[C@@H](n2cnc3c2N=CNC[C@H]3O)C[C@@H]1O` [Pentostatin] (top concentration 10000 nM), the “selective drug sensitivity score” value is -0.44.

`CC(C)N(C[C@H]1O[C@@H](n2cnc3c(N)ncnc32)[C@H](O)[C@@H]1O)[C@H]1C[C@@H](CCc2nc3cc(C(C)(C)C)ccc3[nH]2)C1` [Pinometostat] (top concentration 1000 nM): the “selective drug sensitivity score” value is 0.

In the case of `Cc1ccc(=O)n(-c2ccccc2)c1` [Pirfenidone] (top concentration 10000 nM), the “selective drug sensitivity score” value turned out to be 0.

In another experiment the test system is JURKAT. The description is as above. The conditions noted are these: 72 h.
Take `CC(=O)[C@]1(O)Cc2c(O)c3c(c(O)c2[C@@H](O[C@H]2C[C@H](N)[C@H](O)[C@H](C)O2)C1)C(=O)c1ccccc1C3=O` [Idarubicin] (top concentration 1000 nM): the “selective drug sensitivity score” value was determined as 3.34.

Take `COc1cc2nccc(Oc3ccc(NC(=O)NC4CC4)c(Cl)c3)c2cc1C(N)=O` [Lenvatinib] (top concentration 2500 nM): the “selective drug sensitivity score” value is -0.24.

As for `N#Cc1ccc(C(c2ccc(C#N)cc2)n2cncn2)cc1` [Letrozole] (top concentration 10000 nM), the “selective drug sensitivity score” value was -0.04.

For the compound `CCNCCS(=O)(=O)NC[C@@]1(c2ccccc2)SC(NC(=O)C(C)(C)C)=NN1C(=O)C(C)(C)C` [Litronesib] (top concentration 1000 nM), the “selective drug sensitivity score” value came to 19.2.

Turning to `CC[C@H](C)C(=O)O[C@H]1C[C@@H](C)C=C2C=C[C@H](C)[C@H](CC[C@@H]3C[C@@H](O)CC(=O)O3)[C@H]21` [Lovastatin] (top concentration 10000 nM), the “selective drug sensitivity score” value came out at 0.1.

Take `Cn1cc(-c2cnn3c(N)c(Br)c([C@@H]4CCCNC4)nc23)cn1` [MK-8776] (top concentration 2500 nM): the “selective drug sensitivity score” value is -1.46.

On to `Cc1cnc(-c2ccccc2C(C)C)nc1NCc1ccc(-n2ccnn2)cc1` [ML323] (top concentration 10000 nM), for which the “selective drug sensitivity score” value came out at 4.14.

For `O=C(CCNC(=O)c1ccc(OC(F)(F)F)cc1)N[C@@H]1CCCc2ccccc21` [ML390] (top concentration 50000 nM), the “selective drug sensitivity score” value is 14.8.

As to `CN(C)C(=N)NC(=N)N` [Metformin] (top concentration 100000 nM), the “selective drug sensitivity score” value was -0.02.

In the case of `C[C@H]1C[C@@H]2[C@H]([C@@H](O)C[C@@]3(C)[C@H]2CC[C@]3(O)C(=O)CO)[C@@]2(C)C=CC(=O)C=C12` [Methylprednisolone] (top concentration 10000 nM), the “selective drug sensitivity score” value is -2.

With `FC(F)(F)c1ccc(/C=C/c2nc(COc3ccc(CCCCn4ccnn4)cc3)co2)cc1` [Mubritinib] (top concentration 1000 nM), the “selective drug sensitivity score” value is 24.

For `COc1cc2c(cc1OC(C)C)[C@H](c1ccc(Cl)cc1)N(c1ccc(N(C)C[C@H]3CC[C@H](N4CCN(C)C(=O)C4)CC3)cc1)C(=O)C2` [NVP-CGM097] (top concentration 25000 nM), the “selective drug sensitivity score” value is -4.44.

With `CCOc1cc2ncc(C#N)c(Nc3ccc(OCc4ccccn4)c(Cl)c3)c2cc1NC(=O)/C=C/CN(C)C` [Neratinib] (top concentration 1000 nM), the “selective drug sensitivity score” value came to 1.48.

For `COc1ncc(-c2ccc3nccc(-c4ccnnc4)c3c2)cc1NS(=O)(=O)c1ccc(F)cc1F` [Omipalisib] (top concentration 1000 nM), the “selective drug sensitivity score” value was found to be 4.2.

On to `CN1CCN(c2cc(C(=O)Nc3ccc4c(c3)-c3c(c(C(N)=O)nn3-c3ccc(F)cc3)CC4)c(Cl)cn2)CC1` [PHA-408] (top concentration 10000 nM), for which the “selective drug sensitivity score” value stood at 0.18.

With `OC[C@H]1O[C@@H](n2cnc3c2N=CNC[C@H]3O)C[C@@H]1O` [Pentostatin] (top concentration 10000 nM), the “selective drug sensitivity score” value is -0.44.

In the case of `CC(C)N(C[C@H]1O[C@@H](n2cnc3c(N)ncnc32)[C@H](O)[C@@H]1O)[C@H]1C[C@@H](CCc2nc3cc(C(C)(C)C)ccc3[nH]2)C1` [Pinometostat] (top concentration 1000 nM), the “selective drug sensitivity score” value worked out at 0.

As to `Cc1ccc(=O)n(-c2ccccc2)c1` [Pirfenidone] (top concentration 10000 nM), the “selective drug sensitivity score” value worked out at 0.

A further experiment has as its system KASUMI-10. Described as above. The conditions noted are these: 72 h.
On to `CC(=O)[C@]1(O)Cc2c(O)c3c(c(O)c2[C@@H](O[C@H]2C[C@H](N)[C@H](O)[C@H](C)O2)C1)C(=O)c1ccccc1C3=O` [Idarubicin] (top concentration 1000 nM), for which the “selective drug sensitivity score” value worked out at 8.14.

For `COc1cc2nccc(Oc3ccc(NC(=O)NC4CC4)c(Cl)c3)c2cc1C(N)=O` [Lenvatinib] (top concentration 2500 nM), the “selective drug sensitivity score” value came out at 1.86.

Regarding `N#Cc1ccc(C(c2ccc(C#N)cc2)n2cncn2)cc1` [Letrozole] (top concentration 10000 nM), the “selective drug sensitivity score” value is -0.04.

On to `CCNCCS(=O)(=O)NC[C@@]1(c2ccccc2)SC(NC(=O)C(C)(C)C)=NN1C(=O)C(C)(C)C` [Litronesib] (top concentration 1000 nM), for which the “selective drug sensitivity score” value turned out to be 14.7.

Consider `CC[C@H](C)C(=O)O[C@H]1C[C@@H](C)C=C2C=C[C@H](C)[C@H](CC[C@@H]3C[C@@H](O)CC(=O)O3)[C@H]21` [Lovastatin] (top concentration 10000 nM), for which the “selective drug sensitivity score” value was -0.1.

As to `Cn1cc(-c2cnn3c(N)c(Br)c([C@@H]4CCCNC4)nc23)cn1` [MK-8776] (top concentration 2500 nM), the “selective drug sensitivity score” value amounted to 2.24.

For `Cc1cnc(-c2ccccc2C(C)C)nc1NCc1ccc(-n2ccnn2)cc1` [ML323] (top concentration 10000 nM), the “selective drug sensitivity score” value was -0.36.

For `O=C(CCNC(=O)c1ccc(OC(F)(F)F)cc1)N[C@@H]1CCCc2ccccc21` [ML390] (top concentration 50000 nM), the “selective drug sensitivity score” value stood at 4.1.

On to `CN(C)C(=N)NC(=N)N` [Metformin] (top concentration 100000 nM), for which the “selective drug sensitivity score” value was -0.02.
